Assay results published in patent US20220204539A1, “CD73 INHIBITORS” (BioArdis LLC, priority 2019, published 2022).

Target: T1, Recombinant Human 5′-Nucleotidase (CD73) (Homo sapiens, UniProt P21589)
T1 construct: CHO derived CD73 (Trp27-Lys547), with a C-terminal 6-His tag; 6-His (C); purchased R&D 5795-EN; host or cells: CHO
T1 sequence (P21589 27-547): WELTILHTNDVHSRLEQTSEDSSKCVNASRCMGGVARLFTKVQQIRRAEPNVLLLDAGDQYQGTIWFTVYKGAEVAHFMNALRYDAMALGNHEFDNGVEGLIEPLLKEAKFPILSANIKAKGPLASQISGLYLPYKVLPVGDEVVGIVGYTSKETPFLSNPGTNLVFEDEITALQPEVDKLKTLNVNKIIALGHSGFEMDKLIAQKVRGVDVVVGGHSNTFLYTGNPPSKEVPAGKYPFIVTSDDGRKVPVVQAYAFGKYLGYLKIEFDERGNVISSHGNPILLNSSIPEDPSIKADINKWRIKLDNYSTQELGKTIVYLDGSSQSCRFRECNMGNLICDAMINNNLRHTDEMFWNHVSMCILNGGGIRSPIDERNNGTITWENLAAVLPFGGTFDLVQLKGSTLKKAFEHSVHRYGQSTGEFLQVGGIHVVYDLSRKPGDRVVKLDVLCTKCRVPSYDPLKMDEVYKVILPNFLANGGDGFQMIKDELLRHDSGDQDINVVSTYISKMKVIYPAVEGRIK
Assay: CD73 Enzyme Assay
Type: biochemical
Settings: not given
Excerpt: Soluble recombinant CD73 catalyzes the conversion of adenosine monophosphate (AMP) to adenosine and inorganic phosphate. The phosphate detection reagent, PiColorLock™ (Innova Bioscience, Cat #303-0125) is based on the change in absorbance of the dye malachite green in the presence of inorganic phosphate (Pi) and this property can be exploited to measure any enzyme that generates Pi. Recombinant Human 5′-Nucleotidase (CD73) (R&D #5795-EN, CHO derived CD73 (Trp27-Lys547), with a C-terminal 6-His tag) was used in the enzymatic assay. This assay was run in a 384-well plate format (Corning® NBS™ 384 well plates, Cat #3640). The basic assay procedure involves two steps: 1) Enzyme reaction: The CD73 enzyme (R&D #5795-EN) is incubated in the presence or absence of compounds. AMP (sigma, cat #01930) is added to start the […] reaction. 2) Detection step: Gold mix is added to the assay system, then stabilizers are added. After incubation the absorbance of the solution is read at OD 635 nm. The recorded OD signal is proportional to the enzyme activity.
Briefly, 25 μl human CD73 (0.5 nM final concentration) in the enzymatic buffer solutions (20 mM Tris, 25 mM NaCl, 1 mM MgCl2, pH 7.5, 0.005% Tween-20) were mixed with various concentrations of the test compound (dissolved in 100% DMSO). These solutions were incubated for 15 min at 25° C., and subsequently 25 μl AMP (30 μM final concentration) was added to start the reaction. The final reaction mixture of enzyme-substrate-compound was incubated for 20 min at 37° C. Meanwhile ‘Gold mix’ was prepared shortly before use by adding 1/100 vol. of accelerator to the PiColorLock™ Gold reagent. 12 μL/well of the ‘Gold mix’ was added to assay plate containing 50 μL enzyme reaction buffer and incubated at 25° C. for 5 min. 5 μL/well stabilizer was added to the assay plate and incubated at 25° C. for 30 min. The absorbance of the well solutions was measured at 635 nm on a Spark 10M instrument (TECAN).
The percent (%) inhibition at each concentration of a compound was calculated relative to the OD value in the Max and Min control wells contained within each assay plate. The Max control wells contained enzyme and substrate as 0% inhibition, and the M control wells only contained substrate without enzyme as 100% inhibition. The concentrations and percent inhibition values for a test compound are plotted and the concentration of the compound required to achieve 50% inhibition (IC50) was determined with a four-parameter logistic dose response equation.

Row | Compound | IC50 [µM]
1 | COP(=O)(CP(=O)(O)O)OC[C@H]1O[C@@H](c2cnc3c(NC4CCCC4)nc(Cl)nn23)[C@H](O)[C@@H]1O (stereo partly drawn) [Compound 71, (((((2R,3S,4R,1S)-5-(2-chloro-4-(cyclopentylamino)imidazo[2,1-f][1,2,4]triazin-7-yl)-3,4-dihydroxytetrahydrofuran-2-yl)methoxy)(methoxy)phosphoryl)methy)phosphonic Acid] | 0.01 to 0.099

Same assay, conditions: human CD73 0.5 nM, AMP 30 μM, PiColorLock phosphate detection; read-out: Potency (IC50, CD73 enzyme assay)

Row | Compound | IC50 [µM]
2 | O=P(O)(O)CP(=O)(O)OC[C@H]1O[C@@H](c2cnc3c(NCC4CCCC(O)C4)nc(Cl)nn23)[C@H](O)[C@@H]1O (stereo partly drawn) [Compound 78, (((((2R,3S,4R,5S)-5-(2-chloro-4-(((3-hydroxycyclohexyl)methyl)amino)imidazo[2,1-f][1,2,4]triazin-7-yl)-3,4-dihydroxytetrahydrofuran-2-yl)methoxy)(hydroxy)phosphoryl)methyl) phosphonic acid] | < 0.01
3 | O=P(O)(O)CP(=O)(O)OC[C@H]1O[C@@H](c2cnc3c(NCC4CCC(O)CC4)nc(Cl)nn23)[C@H](O)[C@@H]1O (stereo partly drawn) [Compound 77, (((((2R,3S,4R,1S)-5-(2-chloro-4-(((4-hydroxycyclohexyl)methyl)amino)imidazo[2,1-f][1,2,4]triazin-7-yl)-3,4-dihydroxytetrahydrofuran-2-yl)methoxy)(hydroxy)phosphoryl)methyl)phosphonic Acid] | < 0.01
4 | CC(C)OC(=O)OCOP(=O)(CP(=O)(O)OC[C@H]1O[C@@H](c2cnc3c(NC4CCCC4)nc(Cl)nn23)[C@H](O)[C@@H]1O)OCOC(=O)OC(C)C [Compound 70, (((((((2R,3S,4R,5S)-5-(2-chloro-4-(cyclopentylamino)imidazo[2,1-f][1,2,4]triazin-7-yl)-3,4-dihydroxytetrahydrofuran-2-yl)methoxy)(hydroxy)phosphoryl)methyl)phosphoryl)bis(oxy)) bis(methylene) diisopropyl bis(carbonate)] | 0.1 to 0.999
5 | CC(C)(C)[C@H]1CCCN1c1nc(Cl)nn2c([C@@H]3O[C@H](COP(=O)(O)CP(=O)(O)O)[C@@H](O)[C@H]3O)cnc12 [Compound 51, (((((2R,3S,4R,1S)-5-(4-((R)-2-(tert-butyl)pyrrolidin-1-yl)-2-chloroimidazo[2,1-f][1,2,4]triazin-7-yl)-3,4-dihydroxytetrahydrofuran-2-yl)methoxy)(hydroxy)phosphoryl)methyl)phosphonic Acid] | 0.01 to 0.099
6 | O=P(O)(O)CP(=O)(O)OC[C@H]1O[C@@H](c2cnc3c(N[C@H]4CC[C@H](N5CCCCC5)C4)nc(Cl)nn23)[C@H](O)[C@@H]1O [Compound 79, (((((2R,3S,4R,1S)-5-(2-chloro-4-(((1S,3S)-3-(piperidin-1-yl)cyclopentyl)amino)imidazo[2,1-f][1,2,4]triazin-7-yl)-3,4-dihydroxytetrahydrofuran-2-yl)methoxy)(hydroxy)phosphoryl)methyl)phosphonic Acid] | < 0.01
7 | COP(=O)(CP(=O)(OC)OC[C@H]1O[C@@H](c2cnc3c(NC4CCCC4)nc(Cl)nn23)[C@H](O)[C@@H]1O)OC (stereo partly drawn) [Compound 57, ((2R,3S,4R,5S)-5-(2-chloro-4-(cyclopentylamino)imidazo[2,1-f][1,2,4]triazin-7-yl)-3,4-dihydroxytetrahydrofuran-2-yl)methyl methyl ((dimethoxyphosphoryl)methyl)phosphonate] | > 1
8 | O=P(O)(O)CP(=O)(O)OC[C@H]1O[C@@H](c2cnc3c(NC4CCCC4)nc(Cl)nn23)[C@@H](F)[C@@H]1O [Compound 7, (((((2R,3R,4S,5S)-5-(2-chloro-4-(cyclopentylamino)imidazo[2,1-f][1,2,4]triazin-7-yl)-4-fluoro-3-hydroxytetrahydrofuran-2-yl)methoxy)(hydroxy)phosphoryl)methyl)phosphonic acid] | 0.01 to 0.099
9 | O=P(O)(O)CP(=O)(O)OC[C@H]1O[C@@H](c2cnc3c(N4CCC[C@@H]4c4ccccc4)nc(Cl)nn23)[C@H](O)[C@@H]1O [Compound 31, [({[(2R,3S,4R,5S)-5-{2-chloro-4-[(2R)-2-phenylpyrrolidin-1-yl]imidazo[2,1-f][1,2,4]triazin-7-yl}-3,4-dihydroxyoxolan-2-yl]methoxy}(hydroxy)phosphoryl)methyl]phosphonic Acid] | 0.01 to 0.099
10 | CC(C)(C)[C@@H]1CCCN1c1nc(Cl)nn2c([C@@H]3O[C@H](COP(=O)(O)CP(=O)(O)O)[C@@H](O)[C@H]3O)cnc12 [Compound 38, (((((2R,3S,4R,1S)-5-(4-((S)-2-(tert-butyl)pyrrolidin-1-yl)-2-chloroimidazo[2,1-f][1,2,4]triazin-7-yl)-3,4-dihydroxytetrahydrofuran-2-yl)methoxy)(hydroxy)phosphoryl)methyl)phosphonic Acid] | 0.01 to 0.099
11 | N#CCCOP(=O)(CP(=O)(O)O)OC[C@H]1O[C@@H](c2cnc3c(NC4CCCC4)nc(Cl)nn23)[C@H](O)[C@@H]1O (stereo partly drawn) [Compound 69, (((((2R,3S,4R,5S)-5-(2-chloro-4-(cyclopentylamino)imidazo[2,1-f][1,2,4]triazin-7-yl)-3,4-dihydroxytetrahydrofuran-2-yl)methoxy)(2-cyanoethoxy)phosphoryl)methyl) phosphonic acid] | 0.01 to 0.099
12 | O=P(O)(CP1(=O)OCC[C@@H](c2cccc(Cl)c2)O1)OC[C@H]1O[C@@H](c2cnc3c(NC4CCCC4)nc(Cl)nn23)[C@H](O)[C@@H]1O (stereo partly drawn) [Compound 58, ((2R,3S,4R,5S)-5-(2-chloro-4-(cyclopentylamino)imidazo[2,1-f][1,2,4]triazin-7-yl)-3,4-dihydroxytetrahydrofuran-2-yl)methyl hydrogen (((4S)-4-(3-chlorophenyl)-2-oxido-1,3,2-dioxaphosphinan-2-yl)methyl)phosphonate] | 0.1 to 0.999
13 | O=P(O)(O)CP(=O)(O)OC[C@H]1O[C@@H](c2cnc3c(NCC4CCCO4)nc(Cl)nn23)[C@H](O)[C@@H]1O (stereo partly drawn) [Compound 13, (((((2R,3S,4R,1S)-5-(2-chloro-4-(((tetrahydrofuran-2-yl)methyl)amino)imidazo[2,1-f][1,2,4]triazin-7-yl)-3,4-dihydroxytetrahydrofuran-2-yl)methoxy)(hydroxy)phosphoryl)methyl) phosphonic Acid] | 0.01 to 0.099
14 | O=P(O)(O)CP(=O)(O)OC[C@H]1O[C@@H](c2coc3c(NCc4ccccc4)ncnc23)[C@H](O)[C@@H]1O [Compound 81, (((((2R,3S,4R,5R)-5-(4-(benzylamino)furo[3,2-d]pyrimidin-7-yl)-3,4-dihydroxytetrahydrofuran-2-yl)methoxyxhydroxy)phosphoryl)methyl)phosphonic acid] | 0.01 to 0.099
15 | COCCOCCOP(=O)(CP(=O)(O)O)OC[C@H]1O[C@@H](c2cnc3c(NC4CCCC4)nc(Cl)nn23)[C@H](O)[C@@H]1O (stereo partly drawn) [Compound 67, (((((2R,3S,4R,5S)-5-(2-chloro-4-(cyclopentylamino)imidazo[2,1-f][1,2,4]triazin-7-yl)-3,4-dihydroxytetrahydrofuran-2-yl)methoxy)(2-(2-methoxyethoxy)ethoxy)phosphoryl)methyl)phosphonic acid] | 0.01 to 0.099
16 | COP(=O)(CP(=O)(OC)OC[C@H]1O[C@@H](c2cnc3c(N4CC5CCCC5C4)nc(Cl)nn23)[C@@H](F)[C@@H]1O)OC (stereo partly drawn) [Compound 76, ((2R,3R,4S,5S)-5-(2-chloro-4-(hexahydrocyclopenta[c]pyrrol-2(1H)-yl)imidazo[2,1-f][1,2,4]triazin-7-yl)-4-fluoro-3-hydroxytetrahydrofuran-2-yl)methyl methyl ((dimethoxyphosphoryl)methyl)phosphonate] | > 1
